# Assay results from US8178658B2 (Dow AgroSciences, LLC, priority 2008, dated 2012).
# Like-named read-outs stand apart in the source and are kept apart here.
# Columns and labels:
# [1] = tested on: beet armyworm (BAW; Spodoptera exigua: Lepidoptera); assay: 96-well microtiter plate-based high throughput (HTS) diet bioassay on beet armyworm (BAW HTS); type: in vivo; settings: for pest or weed control at 12 µg/well, 12 µg/well: Spodoptera exigua, 144 h, read-out: BAW HTS
# Description: (§1) Bioassays on beet armyworm (BAW; Spodoptera exigua: Lepidoptera) were conducted using either a 96-well microtiter plate-based high throughput (HTS) bioassay or a 128-well diet tray assay. The HTS assay is a based on a modification of Lewer et al. J. Nat. Prod. 2006, 69, 1506. BAW eggs of were placed on top of artificial diet (100 μl) in each well of 96-well microtiter plate. The diet was pretreated with test compounds (12 μg dissolved in 30 μL of DMSO-acetone-water mixture) layered on top of the diet using a liquid handling system and then allowed to dry for several hours. Infested plates were then covered with a layer of sterile cotton batting and the plate lid, and then held in the dark at 29° C. Mortality was recoded at 6 d post-treatment. Each plate had six replicates. The percent mortality was calculated from the average of the six replicates. In the case of the 128-well diet assay, three to five second instar BAW larvae were placed in each well (3 mL) of the diet tray that had been previously filled with 1 mL of artificial diet to which 50 μg/cm^2 of the test compound (dissolved in 50 μL of 90:10 acetone-water mixture) had been applied (to each of eight wells) and then allowed to dry. Trays were covered with a clear self-adhesive cover, and held at 25° C., 14:10 light-dark for six days. Percent mortality was recorded for the larvae in each well; activity in the eight wells was then averaged. In Table 7, under the BAW HTS or BAW 50 heading, an “A” means that the compound was tested and at least 50 percent mortality was observed whereas, “B” means that either (1) the compound was tested and less than 50 percent mortality was observed or (2) the compound was not tested.
# [2] = tested on: beet armyworm (BAW; Spodoptera exigua: Lepidoptera); assay: 128-well diet tray assay on beet armyworm (BAW 50); type: in vivo; settings: for BAW 50 ug/cm2: 50 μg/cm^2 of test compound on diet; for pest or weed control at 50 µg/cm2, 50 µg/cm2: Spodoptera exigua, 144 h, read-out: BAW 50 ug/cm2
# Description: as §1
# [3] = 96-well HTS diet bioassay, BAW eggs, 12 μg test compound per well, mortality at 6 d post-treatment, mortality class
# [4] = 96-well microtiter plate HTS diet assay, 12 μg test compound per well, BAW eggs, mortality at 6 d post-treatment, mortality class
# [5] = 128-well diet tray assay, second instar BAW larvae, mortality class
# [6] = 96-well HTS diet assay, BAW eggs, 12 μg test compound per well, mortality at 6 d post-treatment, mortality class
# [7] = 128-well diet tray assay, second instar BAW larvae, 50 μg/cm2 of test compound on diet, mortality class
Compound,"BAW HTS [1, 3]","BAW HTS [1, 4]","BAW 50 ug/cm2 [2, 5]","pest or weed control at 12 µg/well, 12 µg/well [1] [%]","pest or weed control at 50 µg/cm2, 50 µg/cm2 [2] [%]","BAW HTS [1, 6]","pest or weed control at 12 µg/well, 12 µg/well [1, 3] [%]","pest or weed control at 50 µg/cm2, 50 µg/cm2 [2, 7] [%]"
CCC(O)c1ccc(-n2ccc(-c3ccc(C=NOC4OC(C)C(OC)C(OC)C4OC)cc3)n2)cc1 (mixture of isomers) [Compound 5],B (either (1) the compound was tested and less than 50 percent mortality was observed or (2) the compound was not tested),B (either (1) the compound was tested and less than 50 percent mortality was observed or (2) the compound was not tested),A (the compound was tested and at least 50 percent mortality was observed),–,–,–,–,–
"CCO[C@@H]1[C@@H](OC)[C@H](C)O[C@@H](OC(=O)N(C)c2ccc(-c3ncn(-c4ccc(OC(F)(F)F)cc4)n3)cc2)[C@@H]1OC [Compound 250, methyl {4-[1-(4-trifluoromethoxyphenyl)-1H-[1,2,4]triazol-3-yl]-phenyl}-carbamic acid (2S,3R,4R,5S,6S)-4-ethoxy-3,5-dimethoxy-6-methyl-tetrahydropyran-2-yl ester]",–,B (either (1) the compound was tested and less than 50 percent mortality was observed or (2) the compound was not tested),A (the compound was tested and at least 50 percent mortality was observed),< 50,> 50,–,–,–
CO[C@H]1[C@H](C)O[C@H](OC(=O)Nc2ccc(-c3ncn(-c4ccc(OC(F)(F)C(F)(F)F)cc4)n3)cc2)C[C@@H]1OC [Compound 245],–,B (either (1) the compound was tested and less than 50 percent mortality was observed or (2) the compound was not tested),A (the compound was tested and at least 50 percent mortality was observed),–,–,B (either (1) the compound was tested and less than 50 percent mortality was observed or (2) the compound was not tested),–,–
"CO[C@@H]1[C@@H](OC)[C@H](C)O[C@@H](ON=Cc2ccc(-c3ncn(-c4ccc([S+]([O-])C(F)(F)F)cc4)n3)cc2)[C@@H]1OC (stereo partly drawn) [Compound 103, 4-[1-(4-trifluoromethanesulfinylphenyl)-1H-[1,2,4]triazol-3-yl]-benzaldehyde O-((2S,3R,4R,5S,6S)-3,4,5-trimethoxy-6-methyl-tetrahydropyran-2-yl)-oxime]",–,B (either (1) the compound was tested and less than 50 percent mortality was observed or (2) the compound was not tested),A (the compound was tested and at least 50 percent mortality was observed),–,–,–,< 50,> 50
"CCO[C@@H]1[C@@H](OC)[C@H](C)O[C@@H](OC(=O)N(C)c2ccc(-c3ncn(-c4ccc(OC(F)(F)C(F)(F)F)cc4)n3)cc2)[C@@H]1OC [Compound 251, methyl {4-[1-(4-pentafluoroethoxy-phenyl)-1H-[1,2,4]triazol-3-yl]-phenyl}-carbamic acid (2S,3R,4R,5S,6S)-4-ethoxy-3,5-dimethoxy-6-methyl-tetrahydropyran-2-yl ester]",–,B (either (1) the compound was tested and less than 50 percent mortality was observed or (2) the compound was not tested),A (the compound was tested and at least 50 percent mortality was observed),< 50,> 50,–,–,–
CCO[C@@H]1[C@@H](OC)[C@H](C)O[C@@H](OC(=O)Nc2ccc(C3=NOC(c4ccc(C(F)(F)F)cc4)C3)cc2)[C@@H]1OC (some centres unmarked) [Compound 181],–,A (the compound was tested and at least 50 percent mortality was observed),A (the compound was tested and at least 50 percent mortality was observed),–,–,A (the compound was tested and at least 50 percent mortality was observed),–,–
COC1C(C)OC(ON=Cc2ccc(-c3cn(-c4ccc(C)cc4)nn3)cc2)C(OC)C1OC (centres unmarked) [Compound 76],B (either (1) the compound was tested and less than 50 percent mortality was observed or (2) the compound was not tested),B (either (1) the compound was tested and less than 50 percent mortality was observed or (2) the compound was not tested),B (either (1) the compound was tested and less than 50 percent mortality was observed or (2) the compound was not tested),–,–,–,–,–
CCCOC1C(OC)C(C)OC(ON=Cc2ccc(-c3ncn(-c4ccc(C(F)(F)F)cc4)n3)cc2)C1OC (centres unmarked) [Compound 107],A (the compound was tested and at least 50 percent mortality was observed),A (the compound was tested and at least 50 percent mortality was observed),A (the compound was tested and at least 50 percent mortality was observed),–,–,–,–,–
CCO[C@@H]1[C@@H](OC)[C@H](C)O[C@@H](OC(=O)Nc2ccc(-c3ncn(-c4ccc(C(F)(F)F)cc4)n3)cc2)[C@@H]1OC [Compound 192],–,A (the compound was tested and at least 50 percent mortality was observed),A (the compound was tested and at least 50 percent mortality was observed),–,–,A (the compound was tested and at least 50 percent mortality was observed),–,–
"CO[C@@H]1[C@@H](OC)[C@H](C)O[C@@H](ON=Cc2ccc(-c3ncn(-c4ccc(S(=O)(=O)C(F)(F)F)cc4)n3)cc2)[C@@H]1OC [Compound 104, 4-[1-(4-trifluoromethanesulfonylphenyl)-1H-[1,2,4]triazol-3-yl]-benzaldehyde O-((2S,3R,4R,5S,6S)-3,4,5-trimethoxy-6-methyl-tetrahydropyran-2-yl)-oxime]",–,B (either (1) the compound was tested and less than 50 percent mortality was observed or (2) the compound was not tested),A (the compound was tested and at least 50 percent mortality was observed),–,–,–,< 50,> 50
"CCCO[C@@H]1[C@@H](OC)[C@@H](OC)[C@H](O/N=C/c2ccc(-c3ncn(-c4ccc(OC(F)(F)C(F)(F)F)cc4)n3)cc2)O[C@H]1C [Compound 113, 4-[1-(4-pentafluoroethyloxy-phenyl)-1H-[1,2,4]triazol-3-yl]-benzaldehyde, O-((2S,3R,4R,5S,6S)-3,4-dimethoxy-6-methyl-5-propoxy-tetrahydropyran-2-yl)-oxime]",–,B (either (1) the compound was tested and less than 50 percent mortality was observed or (2) the compound was not tested),A (the compound was tested and at least 50 percent mortality was observed),–,–,–,< 50,> 50
COc1ccc(-n2cnc(-c3ccc(C=NOC4OC(C)C(OC)C(OC)C4OC)cc3)n2)cc1 (centres unmarked) [Compound 85],B (either (1) the compound was tested and less than 50 percent mortality was observed or (2) the compound was not tested),B (either (1) the compound was tested and less than 50 percent mortality was observed or (2) the compound was not tested),A (the compound was tested and at least 50 percent mortality was observed),–,–,–,–,–
COC1C(C)OC(ON=Cc2ccc(-c3ncn(-c4ccc(OC(F)(F)C(F)(F)F)cc4)n3)cc2)C(OC)C1OC (centres unmarked) [Compound 89],B (either (1) the compound was tested and less than 50 percent mortality was observed or (2) the compound was not tested),B (either (1) the compound was tested and less than 50 percent mortality was observed or (2) the compound was not tested),A (the compound was tested and at least 50 percent mortality was observed),–,–,–,–,–
CCO[C@@H]1[C@@H](OC)[C@H](C)O[C@@H](OC(=O)Nc2ccc(-c3ncn(-c4ccc(OC(F)(F)F)cc4)n3)cc2)[C@@H]1OC [Compound 193],–,B (either (1) the compound was tested and less than 50 percent mortality was observed or (2) the compound was not tested),A (the compound was tested and at least 50 percent mortality was observed),–,–,B (either (1) the compound was tested and less than 50 percent mortality was observed or (2) the compound was not tested),–,–
CCOC1C(OC)C(C)OC(ON=Cc2ccc(-c3ncc(-c4ccc(SC)cc4)cn3)cc2)C1OC (centres unmarked) [Compound 163],–,B (either (1) the compound was tested and less than 50 percent mortality was observed or (2) the compound was not tested),B (either (1) the compound was tested and less than 50 percent mortality was observed or (2) the compound was not tested),–,–,B (either (1) the compound was tested and less than 50 percent mortality was observed or (2) the compound was not tested),–,–
